Reference: patent US6737383B1, “Herbicidal oxadiazolidines” (priority 1999, dated 2004)

What was measured:
corn = assay: Test B pre/postemergence corn; assay type: in vivo, Zea mays
Summary of the method: (§1)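 Response is a visual 0-to-10 score relative to untreated plants, where 0 means no effect and 10 means complete control, taken twelve to sixteen days after application. Treatments went onto soil at planting and onto foliage of 1- to 4-leaf plants, using a surfactant-containing non-phytotoxic solvent.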

wheat = assay: Test B pre/postemergence wheat; assay type: in vivo, Triticum aestivum
Summary of the method: as §1

morningglory = assay: Test B pre/postemergence morningglory; assay type: in vivo, Ipomoea hederacea
Summary of the method: as §1

duck salad = assay: Test B flood test duck salad; assay type: in vivo, Heteranthera limosa; conditions: for Plant response rating, Ducksalad (0 to 10 scale, 0 is no effect, 10 is complete control): Rate 62 g/ha, Pre-emergence; for Plant response rating, Ducksalad (0 to 10 scale, 0 is no effect, 10 is complete control) / Ducksalad plant response rating (0 to 10 scale, 0 is no effect, 10 is complete control): flood test species, visual evaluation after twelve to sixteen days; for Ducksalad plant response rating (0 to 10 scale, 0 is no effect, 10 is complete control): Rate 125 g/ha, under heading Pre-emergence
Summary of the method: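 Each value is a visual injury score relative to controls, with 10 meaning complete control and 0 no effect. Evaluation took place twelve to sixteen days after the 2-leaf-stage plants were treated and kept in the greenhouse.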

surinam grass = assay: Test B pre/postemergence surinam grass; assay type: in vivo, Brachiaria decumbens
Summary of the method: as §1

bedstraw = assay: Test B pre/postemergence bedstraw; assay type: in vivo, Galium aparine
Summary of the method: as §1

crabgrass = assay: Test B pre/postemergence crabgrass; assay type: in vivo, Digitaria sanguinalis
Summary of the method: as §1

velvetleaf = assay: Test B pre/postemergence velvetleaf; assay type: in vivo, Abutilon theophrasti
Summary of the method: as §1

sugar beet = assay: Test B pre/postemergence sugar beet; assay type: in vivo, Beta vulgaris
Summary of the method: as §1

soybean = assay: Test B pre/postemergence soybean; assay type: in vivo, Glycine max
Summary of the method: as §1

purple nutsedge = assay: Test B pre/postemergence purple nutsedge; assay type: in vivo, Cyperus rotundus
Summary of the method: as §1

cocklebur = assay: Test B pre/postemergence cocklebur; assay type: in vivo, Xanthium strumarium
Summary of the method: as §1

rape = assay: Test B pre/postemergence rape; assay type: in vivo, Brassica napus
Summary of the method: as §1

giant foxtail = assay: Test B pre/postemergence giant foxtail; assay type: in vivo, Setaria faberii
Summary of the method: as §1

pigweed = assay: Test B pre/postemergence pigweed; assay type: in vivo, Amaranthus retroflexus
Summary of the method: as §1

[1] = Postemergence, Rate 62 g/ha, scale 0 to 10, 0 is no effect, 10 is complete control
[2] = Postemergence, Rate 125 g/ha, scale of 0 to 10 where 0 is no effect and 10 is complete control
[3] = Postemergence, Rate 250 g/ha, scale of 0 to 10, 0 is no effect, 10 is complete control
[4] = Preemergence, Rate 62 g/ha, scale of 0 to 10 where 0 is no effect and 10 is complete control
[5] = Preemergence, Rate 125 g/ha, scale of 0 to 10 where 0 is no effect and 10 is complete control
[6] = Preemergence, Rate 250 g/ha, scale 0 to 10 (0 no effect, 10 complete control)
[7] = Preemergence, Rate 500 g/ha, scale of 0 to 10 where 0 is no effect and 10 is complete control
[8] = Rate 500 g/ha, Postemergence, scale 0 to 10, 0 is no effect, 10 is complete control
[9] = Rate 250 g/ha, Pre-emergence (flood test species), scale 0 to 10, 0 is no effect, 10 is complete control
[10] = Rate 500 g/ha, Pre-emergence section of Table B, 0 to 10 scale (0 no effect, 10 complete control)

C=C(Cc1ccccc1)Cn1c(=O)on(C(=O)N(c2ccccc2)C(C)C)c1=O [Compound 650]
Plant response rating, Corn (corn; [1]): 0 | Corn plant response rating (corn; [2]): 0 | Corn plant response rating (corn; [3]): 2 | Corn plant response rating (corn; [4]): 0 | Corn plant response rating (corn; [5]): 0 | Plant response rating, Corn (corn; [6]): 0 | Plant response rating, Corn (corn; [7]): 0 | Corn plant response rating (corn; [8]): 4 | Plant response rating, Wheat (wheat; [1]): 0 | Wheat plant response rating (wheat; [2]): 0 | Wheat plant response rating (wheat; [4]): 0 | Wheat plant response rating (wheat; [5]): 0 | Plant response rating, Wheat (wheat; [6]): 0 | Plant response rating, Wheat (wheat; [7]): 0 | Wheat plant response rating (wheat; [8]): 0 | Plant response rating, Morningglory (morningglory; [1]): 4 | Morningglory plant response rating (morningglory; [2]): 10 | Morningglory plant response rating (morningglory; [3]): 10 | Morningglory plant response rating (morningglory; [4]): 0 | Morningglory plant response rating (morningglory; [5]): 0 | Plant response rating, Morningglory (morningglory; [6]): 1 | Plant response rating, Morningglory (morningglory; [7]): 1 | Morningglory plant response rating (morningglory; [8]): 10 | Plant response rating, Ducksalad (0 to 10 scale, 0 is no effect, 10 is complete control) (duck salad): 0 | Ducksalad plant response rating (0 to 10 scale, 0 is no effect, 10 is complete control) (duck salad): 0 | Ducksalad plant response rating (duck salad; [9]): 0 | Ducksalad plant response rating (duck salad; [10]): 0 | Plant response rating, B. signalgrass (surinam grass; [1]): 0 | Plant response rating, B. signalgrass (surinam grass; [2]): 0 | B. signalgrass plant response rating (surinam grass; [3]): 0 | B. signalgrass plant response rating (surinam grass; [4]): 0 | B. signalgrass plant response rating (surinam grass; [5]): 0 | Plant response rating, B. signalgrass (surinam grass; [6]): 0 | Plant response rating, B. signalgrass (surinam grass; [7]): 4 | B. signalgrass plant response rating (surinam grass; [8]): 2 | Bedstraw plant response rating (bedstraw; [4]): 0 | Bedstraw plant response rating (bedstraw; [5]): 0 | Plant response rating, Bedstraw (bedstraw; [6]): 0 | Plant response rating, Bedstraw (bedstraw; [7]): 5 | Plant response rating, Crabgrass (crabgrass; [1]): 0 | Crabgrass plant response rating (crabgrass; [2]): 1 | Crabgrass plant response rating (crabgrass; [3]): 7 | Crabgrass plant response rating (crabgrass; [4]): 3 | Crabgrass plant response rating (crabgrass; [5]): 8 | Plant response rating, Crabgrass (crabgrass; [6]): 9 | Plant response rating, Crabgrass (crabgrass; [7]): 9 | Crabgrass plant response rating (crabgrass; [8]): 9 | Plant response rating, Velvetleaf (velvetleaf; [1]): 0 | Velvetleaf plant response rating (velvetleaf; [2]): 0 | Velvetleaf plant response rating (velvetleaf; [4]): 0 | Velvetleaf plant response rating (velvetleaf; [5]): 0 | Plant response rating, Velvetleaf (velvetleaf; [6]): 0 | Plant response rating, Velvetleaf (velvetleaf; [7]): 0 | Velvetleaf plant response rating (velvetleaf; [8]): 2 | Plant response rating, Sugarbeets (sugar beet; [1]): 0 | Sugarbeets plant response rating (sugar beet; [2]): 0 | Sugarbeets plant response rating (sugar beet; [4]): 0 | Sugarbeets plant response rating (sugar beet; [5]): 0 | Plant response rating, Sugarbeets (sugar beet; [6]): 0 | Plant response rating, Sugarbeets (sugar beet; [7]): 4 | Sugarbeets plant response rating (sugar beet; [8]): 0 | Plant response rating, Soybean (soybean; [1]): 2 | Soybean plant response rating (soybean; [2]): 4 | Soybean plant response rating (soybean; [4]): 0 | Soybean plant response rating (soybean; [5]): 0 | Plant response rating, Soybean (soybean; [6]): 0 | Plant response rating, Soybean (soybean; [7]): 0 | Soybean plant response rating (soybean; [8]): 5 | Plant response rating, Nutsedge (purple nutsedge; [1]): 2 | Nutsedge plant response rating (purple nutsedge; [2]): 2 | Nutsedge plant response rating (purple nutsedge; [5]): 3 | Plant response rating, Nutsedge (purple nutsedge; [6]): 7 | Plant response rating, Nutsedge (purple nutsedge; [7]): 5 | Nutsedge plant response rating (purple nutsedge; [8]): 4 | Plant response rating, Cocklebur (cocklebur; [1]): 0 | Cocklebur plant response rating (cocklebur; [2]): 0 | Cocklebur plant response rating (cocklebur; [3]): 0 | Cocklebur plant response rating (cocklebur; [4]): 0 | Cocklebur plant response rating (cocklebur; [5]): 0 | Plant response rating, Cocklebur (cocklebur; [6]): 0 | Plant response rating, Cocklebur (cocklebur; [7]): 0 | Cocklebur plant response rating (cocklebur; [8]): 0 | Plant response rating, Rape (rape; [1]): 0 | Rape plant response rating (rape; [2]): 0 | Rape plant response rating (rape; [4]): 0 | Rape plant response rating (rape; [5]): 0 | Plant response rating, Rape (rape; [6]): 0 | Plant response rating, Rape (rape; [7]): 2 | Rape plant response rating (rape; [8]): 3 | Plant response rating, Giant foxtail (giant foxtail; [1]): 0 | Giant foxtail plant response rating (giant foxtail; [2]): 2 | Giant foxtail plant response rating (giant foxtail; [3]): 8 | Giant foxtail plant response rating (giant foxtail; [4]): 7 | Giant foxtail plant response rating (giant foxtail; [5]): 10 | Plant response rating, Giant foxtail (giant foxtail; [6]): 10 | Plant response rating, Giant foxtail (giant foxtail; [7]): 10 | Giant foxtail plant response rating (giant foxtail; [8]): 8 | Plant response rating, Redroot pigweed (pigweed; [1]): 2 | Redroot pigweed plant response rating (pigweed; [2]): 6 | Redroot pigweed plant response rating (pigweed; [4]): 1 | Redroot pigweed plant response rating (pigweed; [5]): 7 | Plant response rating, Redroot pigweed (pigweed; [6]): 7 | Plant response rating, Redroot pigweed (pigweed; [7]): 9 | Redroot pigweed plant response rating (pigweed; [8]): 6

CC(C)N(C(=O)n1oc(=O)n(CC2CCCCO2)c1=O)c1ccccc1 (centres unmarked) [Compound 659]
Plant response rating, Corn (corn; [1]): 0 | Corn plant response rating (corn; [2]): 0 | Corn plant response rating (corn; [3]): 4 | Corn plant response rating (corn; [4]): 0 | Corn plant response rating (corn; [5]): 0 | Plant response rating, Corn (corn; [6]): 7 | Plant response rating, Corn (corn; [7]): 9 | Corn plant response rating (corn; [8]): 6 | Plant response rating, Wheat (wheat; [1]): 0 | Wheat plant response rating (wheat; [2]): 0 | Wheat plant response rating (wheat; [4]): 0 | Wheat plant response rating (wheat; [5]): 0 | Plant response rating, Wheat (wheat; [6]): 2 | Plant response rating, Wheat (wheat; [7]): 7 | Wheat plant response rating (wheat; [8]): 5 | Plant response rating, Morningglory (morningglory; [1]): 4 | Morningglory plant response rating (morningglory; [2]): 10 | Morningglory plant response rating (morningglory; [3]): 10 | Morningglory plant response rating (morningglory; [4]): 0 | Morningglory plant response rating (morningglory; [5]): 0 | Plant response rating, Morningglory (morningglory; [6]): 0 | Plant response rating, Morningglory (morningglory; [7]): 6 | Morningglory plant response rating (morningglory; [8]): 10 | Plant response rating, Ducksalad (0 to 10 scale, 0 is no effect, 10 is complete control) (duck salad): 0 | Ducksalad plant response rating (0 to 10 scale, 0 is no effect, 10 is complete control) (duck salad): 0 | Ducksalad plant response rating (duck salad; [9]): 0 | Ducksalad plant response rating (duck salad; [10]): 0 | Plant response rating, B. signalgrass (surinam grass; [1]): 0 | Plant response rating, B. signalgrass (surinam grass; [2]): 5 | B. signalgrass plant response rating (surinam grass; [3]): 5 | B. signalgrass plant response rating (surinam grass; [4]): 2 | B. signalgrass plant response rating (surinam grass; [5]): 4 | Plant response rating, B. signalgrass (surinam grass; [6]): 4 | Plant response rating, B. signalgrass (surinam grass; [7]): 8 | B. signalgrass plant response rating (surinam grass; [8]): 8 | Plant response rating, Bedstraw (bedstraw; [1]): 0 | Bedstraw plant response rating (bedstraw; [2]): 0 | Plant response rating, Crabgrass (crabgrass; [1]): 1 | Crabgrass plant response rating (crabgrass; [2]): 6 | Crabgrass plant response rating (crabgrass; [3]): 6 | Crabgrass plant response rating (crabgrass; [4]): 8 | Crabgrass plant response rating (crabgrass; [5]): 8 | Plant response rating, Crabgrass (crabgrass; [7]): 10 | Crabgrass plant response rating (crabgrass; [8]): 8 | Plant response rating, Velvetleaf (velvetleaf; [1]): 0 | Velvetleaf plant response rating (velvetleaf; [2]): 3 | Velvetleaf plant response rating (velvetleaf; [4]): 0 | Velvetleaf plant response rating (velvetleaf; [5]): 0 | Plant response rating, Velvetleaf (velvetleaf; [6]): 6 | Plant response rating, Velvetleaf (velvetleaf; [7]): 7 | Velvetleaf plant response rating (velvetleaf; [8]): 6 | Plant response rating, Sugarbeets (sugar beet; [1]): 0 | Sugarbeets plant response rating (sugar beet; [2]): 0 | Sugarbeets plant response rating (sugar beet; [4]): 0 | Sugarbeets plant response rating (sugar beet; [5]): 0 | Plant response rating, Sugarbeets (sugar beet; [6]): 0 | Plant response rating, Sugarbeets (sugar beet; [7]): 5 | Sugarbeets plant response rating (sugar beet; [8]): 4 | Plant response rating, Soybean (soybean; [1]): 2 | Soybean plant response rating (soybean; [2]): 3 | Soybean plant response rating (soybean; [4]): 0 | Soybean plant response rating (soybean; [5]): 0 | Plant response rating, Soybean (soybean; [6]): 0 | Plant response rating, Soybean (soybean; [7]): 2 | Soybean plant response rating (soybean; [8]): 7 | Plant response rating, Nutsedge (purple nutsedge; [1]): 0 | Nutsedge plant response rating (purple nutsedge; [2]): 0 | Nutsedge plant response rating (purple nutsedge; [4]): 0 | Nutsedge plant response rating (purple nutsedge; [5]): 0 | Plant response rating, Nutsedge (purple nutsedge; [6]): 0 | Plant response rating, Nutsedge (purple nutsedge; [7]): 0 | Nutsedge plant response rating (purple nutsedge; [8]): 0 | Plant response rating, Cocklebur (cocklebur; [1]): 0 | Cocklebur plant response rating (cocklebur; [2]): 0 | Cocklebur plant response rating (cocklebur; [3]): 0 | Cocklebur plant response rating (cocklebur; [4]): 0 | Cocklebur plant response rating (cocklebur; [5]): 0 | Plant response rating, Cocklebur (cocklebur; [6]): 0 | Plant response rating, Cocklebur (cocklebur; [7]): 0 | Cocklebur plant response rating (cocklebur; [8]): 2 | Plant response rating, Rape (rape; [1]): 0 | Rape plant response rating (rape; [2]): 0 | Rape plant response rating (rape; [4]): 0 | Rape plant response rating (rape; [5]): 0 | Plant response rating, Rape (rape; [6]): 2 | Plant response rating, Rape (rape; [7]): 10 | Rape plant response rating (rape; [8]): 1 | Plant response rating, Giant foxtail (giant foxtail; [1]): 5 | Giant foxtail plant response rating (giant foxtail; [2]): 7 | Giant foxtail plant response rating (giant foxtail; [3]): 8 | Giant foxtail plant response rating (giant foxtail; [4]): 9 | Giant foxtail plant response rating (giant foxtail; [5]): 9 | Plant response rating, Giant foxtail (giant foxtail; [6]): 9 | Plant response rating, Giant foxtail (giant foxtail; [7]): 10 | Giant foxtail plant response rating (giant foxtail; [8]): 8 | Plant response rating, Redroot pigweed (pigweed; [1]): 0 | Redroot pigweed plant response rating (pigweed; [2]): 0 | Redroot pigweed plant response rating (pigweed; [4]): 6 | Redroot pigweed plant response rating (pigweed; [5]): 6 | Plant response rating, Redroot pigweed (pigweed; [6]): 9 | Plant response rating, Redroot pigweed (pigweed; [7]): 10 | Redroot pigweed plant response rating (pigweed; [8]): 7
